Measured values taken from US20230330093A1, “APPLICATION OF NITROGEN-CONTAINING SATURATED HETEROCYCLIC COMPOUND” (SHANGHAI PHARMACEUTICALS HOLDING CO., LTD., priority 2020, published 2023).
“And” between values parts separate entries of the source, which are not always exact repeats. Equal values may be shown once.

Tested on: rhesus monkeys with spontaneous chronic kidney disease
Experiment: Effect on serum K+, 8-week administration
Conditions: Valsartan group (n = 3)
Method: In the trial, animals were brought in three stages. In the first stage, there were two groups: 3 animals (No. 257, No. 4721, No. 287) in a group with 5 mg/kg of the malate of compound of formula I, and 2 animals (No. 1029, No. 4713) in the placebo group. […] In the third stage, there were two groups: 5 animals (No. 4829, No. 6501, No. 287, No. 4721, No. 2091) in a group with 2 mg/kg of the malate of compound of formula I, and 5 animals (No. 1567, No. 4861, No. 5453, No. 6653, No. 5073) in a group with 1 mg/kg of the malate of compound of formula I.
Serum potassium, twice before administration, once every 2 weeks during the administration period;
Blood biochemical and urine index detection equipment: Roche cobas6000 analyzer series C501 module detection. ELISA kit was used for NT-proBNP test.

- K^+ (2 weeks, Mean ± SD): 5.09 ± 0.54 mmol/L
- K^+ (4 weeks, Mean ± SD): 5.04 ± 0.58 mmol/L
- K^+ (6 weeks, Mean ± SD): 5.06 ± 0.24 mmol/L
- K^+ (8 weeks, Mean ± SD): 5.13 ± 0.74 mmol/L
- K^+ (Baseline 1, Mean ± SD): 4.37 ± 0.54 mmol/L
- K^+ (Baseline 2, Mean ± SD): 4.66 ± 0.40 mmol/L
SMILES: CCCCC(=O)N(Cc1ccc(-c2ccccc2-c2nnn[nH]2)cc1)[C@H](C(=O)O)C(C)C [Valsartan, reference compound]
- K^+ (2 weeks, individual animals): 5.38 mmol/L and 4.47 mmol/L and 5.43 mmol/L
- K^+ (4 weeks, individual animals): 5.68 mmol/L and 4.55 mmol/L and 4.88 mmol/L
- K^+ (6 weeks, individual animals): 5.28 mmol/L and 4.81 mmol/L and 5.09 mmol/L
- K^+ (8 weeks, individual animals): 5.94 mmol/L and 4.50 mmol/L and 4.95 mmol/L
- K^+ (Baseline 1, individual animals): 4.94 mmol/L and 3.86 mmol/L and 4.31 mmol/L
- K^+ (Baseline 2, individual animals): 4.63 mmol/L and 4.27 mmol/L and 5.07 mmol/L
